Experimental data as given in paper PMC6114080 (International Journal for Parasitology: Drugs and Drug …, 2018).

Assays:
Type in all cases: biochemical
CpGPI (MBP-CpGPI) [1] = biological target: T1, CpGPI (MBP-CpGPI) (Cryptosporidium parvum, UniProt Q5CTF8); assay: G6PDH-coupled NADH assay at […] nm
T1 sequence (Q5CTF8 1-567): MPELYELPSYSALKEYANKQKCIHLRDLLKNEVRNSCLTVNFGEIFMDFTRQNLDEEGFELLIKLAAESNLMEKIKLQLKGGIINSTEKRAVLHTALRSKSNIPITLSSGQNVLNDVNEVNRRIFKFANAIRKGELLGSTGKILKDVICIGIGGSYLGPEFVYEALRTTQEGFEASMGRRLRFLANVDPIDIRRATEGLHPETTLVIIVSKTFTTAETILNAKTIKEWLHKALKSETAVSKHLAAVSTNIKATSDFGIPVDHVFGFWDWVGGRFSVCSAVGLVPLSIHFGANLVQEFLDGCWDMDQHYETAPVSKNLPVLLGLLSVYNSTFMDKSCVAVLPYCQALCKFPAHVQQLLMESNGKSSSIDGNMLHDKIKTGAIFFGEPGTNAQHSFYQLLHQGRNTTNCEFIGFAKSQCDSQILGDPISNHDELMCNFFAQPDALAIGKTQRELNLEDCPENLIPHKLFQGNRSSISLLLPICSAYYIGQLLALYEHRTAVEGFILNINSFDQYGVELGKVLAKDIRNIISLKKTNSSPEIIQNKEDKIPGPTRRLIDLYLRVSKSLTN

CpGPI (MBP-CpGPI) [2] = biological target: T1, CpGPI (MBP-CpGPI); assay: G6PDH-coupled NADH assay at […] nm, mixed noncompetitive fit
HsGPI = HsGPI (Homo sapiens, UniProt P06744); assay: G6PDH-coupled NADH assay at […] nm

| Compound | IC50 (CpGPI (MBP-CpGPI) [1]) | Ki (CpGPI (MBP-CpGPI) [2]) | IC50 (HsGPI) |
| --- | --- | --- | --- |
| O=c1c2ccccc2[se]n1-c1ccccc1 [ebselen, 2-phenyl-1,2-benzisoselenazol-3(2H)-one] | 8.33 µM | 36.3 µM | > 400 µM |
| O=C[C@H](O)[C@H](O)COP(=O)(O)O [erythrose-4-phosphate] | 132 µM |  |  |
